Assay results as given in patent US11207299B2, “Biphenyl sulfonamide compounds for the treatment of type IV collagen diseases” (Travere Therapeutics, Inc., priority 2018, dated 2021).
“Also recorded” adds a separate entry of the source.

Experiments:
Assay type in all cases: in vivo, mouse
[1] = tested on: autosomal Alport mice (COL4A3^−/−); experiment: Pilot study: dose-dependent effects of sparsentan in Alport mice treated from 3-7 weeks of age; conditions: for SBP / UP/C / DBP / Sclerotic Glomeruli (%) / BUN / Fibrosis Score: mean ± SD; for Sclerotic Glomeruli (%): fibronectin staining; for Fibrosis Score: at 7 wk, COL1-positive cortical area scored 0=<5% to 5=75-100%
Description: (§1) Vehicle or sparsentan was given daily by oral gavage to autosomal Alport mice (COL4A3^−/−) on the 129/Sv background (male and female) in five separate studies: a pilot study, an early intervention study (treated from 3-7 weeks of age), a late intervention study (treated from 5-7 weeks of age after the onset of glomerular (GM) changes), a lifespan study, and a hearing study (FIG. 1). The early intervention, late intervention, lifespan, and hearing studies also included mice treated with a comparator, losartan, which was given orally at 3-4 weeks of age in the early intervention study, in drinking water at 4-7 weeks of age in the early intervention study, and in drinking water at 5-7 weeks in the late intervention study.
(§2) Efficacy renal endpoints included blood urea nitrogen (BUN), proteinuria (urine protein to creatinine ratio, or UP/C), glomerulosclerosis, tubulointerstitial fibrosis, leucocyte infiltration, and glomerular basement morphology (GBM) using transmission electron microscopy (TEM). Endpoints in the inner ear included auditory brain stem response (ABR) threshold as a measure of noise-induced hearing loss, strial capillary basement membrane thickness, and inner ear pathology by TEM.
(§3) In the pilot study, designed to determine an optimal efficacious dose of sparsentan, Alport mice (3-4 per group) were dosed with vehicle (0.5% methylcellulose 4000 cps/0.25% Tween® 80 in distilled water) or sparsentan at 60 mg/kg or 200 mg/kg from 3 to 7 weeks of age for 28 days. Although 200 mg/kg sparsentan was efficacious in the pilot study, BUN levels were higher than those of Alport mice dosed with 60 mg/kg sparsentan (Table 1; FIG. 2A; FIG. 2B). This observation led to the selection of a 120 mg/kg dose of sparsentan to take forward into the early intervention study. During the pilot study, blood pressure (BP) was measured weekly using the CODA2 tail cuff system. Stria from this pilot study were also examined by immunofluorescence using antibodies to laminin α2
(§4) For the pilot, early intervention, late intervention, and lifespan studies, spot urine was sampled pre-study and weekly during treatment and analyzed for protein (UP) and creatinine (C) to determine proteinuria (UP/C). At the end of each study the animals were euthanized, blood samples were taken, BUN was measured from serum, and kidneys were harvested for structural and immuno-fluorescent measurements. Glomerulosclerosis was assessed by immunofluorescence (IF) using an antibody to fibronectin (FN). Visual counting of the number of sclerotic glomeruli as a proportion of the total number of glomeruli per slide was used to calculate the percentage of sclerotic glomeruli. Sections were co-stained with an anti-CD45 antibody to indicate leucocyte infiltration. Tubulointerstitial fibrosis was determined by IF of kidney sections using an antibody to collagen 1 (COL1). Tubulointerstitial fibrosis (TIF) scoring was conducted by visual assessment of the COL1 positive area as a percentage of the total cortical area and was performed blinded. The fibrosis scoring (“Fibrosis Score”) was categorized according to visual judgment of percentage of total cortical area, as: 0=<5%, 1=5-10%, 2=10-25%, 3=25-50%, 4=50-75%, or 5=75-100%. Ultrastructural changes in GBM and podocyte morphology were observed using transmission electron microscopy (TEM).

[2] = tested on: laminin α2 in stria of Alport mice; experiment: Immunofluorescence of laminin α2 in stria of Alport mice; conditions: Alport mice, sparsentan 200 mg/kg from 3-7 weeks of age (pilot study)
Protocol: as §3, with “Stria from this pilot study were also examined by immunofluorescence using antibodies to laminin α2” left out
For the hearing study, wild-type or Alport mice were treated according to daily from 3-8.5 weeks of age by oral gavage with vehicle (0.5% methylcellulose 4000 cps/0.25% Tween® 80 in distilled water) or 120 mg/kg sparsentan or losartan at 20 mg/kg by oral gavage from 3-4 weeks of age (during weaning) and 10 mg/kg in drinking water from 4-7 weeks of age (n=5). The progression of Alport disease was assessed at 7 weeks of age by the amount of proteinuria (via urinalysis reagent strips—data not shown). […] Hearing ability and sensitivity to noise were assessed between 7 and 8 weeks of age by Auditory Brainstem Response (ABR), pre-noise exposure. […]

[3] = tested on: autosomal Alport mice (COL4A3^−/−); experiment: Early intervention study in Alport mice (treated from 3-7 weeks of age)
Description: as §1, §2
In the early intervention study, wild-type and Alport mice were dosed daily by oral gavage with vehicle or sparsentan at 120 mg/kg from 3 to 7 weeks of age (7-8 mice per group), or with losartan at 20 mg/kg by oral gavage from 3-4 weeks of age (during weaning) and 10 mg/kg in drinking water from 4-7 weeks of age.
as §4

[4] = Alport mice, sparsentan 60 mg/kg, at 5 wk of age
[5] = Alport mice, sparsentan 60 mg/kg, at 6 wk of age
[6] = Alport mice, sparsentan 60 mg/kg, at 7 wk of age
[7] = Alport mice, sparsentan 200 mg/kg, at 5 wk of age
[8] = Alport mice, sparsentan 200 mg/kg, at 6 wk of age
[9] = Alport mice, sparsentan 200 mg/kg, at 7 wk of age
[10] = Alport mice, sparsentan 120 mg/kg, at 7 wk of age, mean ± SD

Which results are given for `CCCCC1=NC2(CCCC2)C(=O)N1Cc1ccc(-c2ccccc2S(=O)(=O)Nc2noc(C)c2C)c(COCC)c1` [sparsentan]?
BUN levels after 200 mg/kg compared to 60 mg/kg sparsentan ([1]; Alport mice, 7 weeks of age, 4 weeks of dosing): elevated; SBP ([1]; Alport mice, sparsentan 60 mg/kg oral daily from 3 wk, at 5 wk of age, n = 4): 114.0 ± 13.0 mmHg; UP/C ([1]; Alport mice, sparsentan 60 mg/kg, at 4 wk of age): 3.4 ± 2.6 mg/mg; DBP [1, 4]: 71.1 ± 10.7 mm/Hg; UP/C [1, 4]: 8.6 ± 2.4 mg/mg; DBP [1, 5]: 72.9 ± 9.6 mm/Hg; SBP [1, 5]: 106.2 ± 6.9 mmHg; UP/C [1, 5]: 1.5 ± 1.5 mg/mg; Sclerotic Glomeruli (%) [1, 6]: 3.5±1.6%; BUN [1, 6]: 17.1 ± 1.5 mg/dL; DBP [1, 6]: 78.1 ± 14.7 mm/Hg; SBP [1, 6]: 117.6 ± 4.6 mmHg; UP/C [1, 6]: 5.6 ± 3.0 mg/mg; Fibrosis Score ([1]; Alport mice, sparsentan 60 mg/kg): 0.0 ± 0.0; SBP ([1]; Alport mice, sparsentan 200 mg/kg oral daily from 3 wk, at 5 wk of age, n = 3): 110.6 ± 21.8 mmHg; UP/C ([1]; Alport mice, sparsentan 200 mg/kg, at 4 wk of age): 2.1 ± 3.7 mg/mg; DBP [1, 7]: 99.7 ± 7.7 mm/Hg; UP/C [1, 7]: 3.9 ± 3.5 mg/mg; DBP [1, 8]: 74.6 ± 21.4 mm/Hg; SBP [1, 8]: 108.7 ± 26.4 mmHg; UP/C [1, 8]: 1.5 ± 2.7 mg/mg; Sclerotic Glomeruli (%) [1, 9]: 1.4±1.3%; BUN [1, 9]: 25.9 ± 7.7 mg/dL; DBP [1, 9]: 91.7 ± 20.0 mm/Hg; SBP [1, 9]: 122 ± 20.9 mmHg; UP/C [1, 9]: 0.8 ± 1.4 mg/mg; Fibrosis Score ([1]; Alport mice, sparsentan 200 mg/kg): 0.0 ± 0.0; Prevention of UP/C, glomerulosclerosis, and fibrosis compared to vehicle-treated mice ([1]; sparsentan 60 and 200 mg/kg, 3-7 weeks of age): prevented an increase in glomerulosclerosis in a dose-dependent manner; also recorded: dose-dependent prevention; Systolic and diastolic blood pressure compared to vehicle-treated Alport mice ([1]; sparsentan 60 or 200 mg/kg, 6 weeks of age (3 weeks of dosing)): significantly lower; COL1 immunoreactivity ([1]; sparsentan-treated Alport mice, pilot study, kidney sections): absent; BP compared to vehicle-treated Alport mice ([1]; sparsentan, end of pilot study (7 weeks of age; 4 weeks of dosing)): no difference; Accumulation of laminin α2 in stria [2]: prevented; GBM damage and podocyte effacement (TEM) ([3]; Alport mice, sparsentan 120 mg/kg, early intervention): prevented changes in GBM ultrastructural morphology; also recorded: amelioration; UP/C ([3]; Alport mice, sparsentan 120 mg/kg oral daily from 3 wk, at 4 wk of age, mean ± SD, n = 8): 3.8 ± 1.3 mg/mg; UP/C ([3]; Alport mice, sparsentan 120 mg/kg, at 5 wk of age, mean ± SD): 10.4 ± 2.8 mg/mg; UP/C ([3]; Alport mice, sparsentan 120 mg/kg, at 6 wk of age, mean ± SD): 13.6 ± 3.7 mg/mg; BUN [3, 10]: 17.5 ± 3.3 mg/dL; Sclerotic Glomeruli (%) [3, 10]: 0.8 ± 1.7 %; UP/C [3, 10]: 14.0 ± 3.3 mg/mg; Fibrosis Score ([3]; Alport mice, sparsentan 120 mg/kg, at 7 wk, score 0=<5% to 5=75-100% COL1 area, mean ± SD): 0.0 ± 0.0; Development of nephropathy in Alport mice ([3]; sparsentan 120 mg/kg 28 days or losartan 20 mg/kg 7 days then 10 mg/kg 21 days, from 3 weeks of age): prevented; UP/C, BUN, glomerulosclerosis, and fibrosis vs. vehicle-treated Alport mice ([3]; sparsentan 120 mg/kg or losartan 20/10 mg/kg from 3 weeks of age, P<0.05): significant attenuation; TIF or glomerulosclerosis ([3]; sparsentan- or losartan-treated Alport mice, early intervention): little to no
